Assay results as given in US6448247B1, “Method for treating an inflammatory disease” (Sankyo Company, Limited, priority 1995, dated 2002).
Read-outs that look alike come from different tables or passages of the source.

Key:
NK1 receptors = target: T1, NK1 receptors (Cavia porcellus, UniProt P30547); test: NK1 Receptor Binding Test; set-up: species or system guinea pig
T1 construct: A crude membrane fraction was prepared from the lung of male Hartley guinea pigs; from tissue; host or cells: guinea pig lung (crude membrane fraction)
Protocol: (a) Preparation of Crude Lung Membrane Fraction
A crude membrane fraction was prepared from the lung of male Hartley guinea pigs. The guinea pigs were bled from the cava abdominalis under chloroform anaesthesia and the pulmonary airway tissue was extracted immediately.
The extracted lung was perfused with a buffer (1) (50 mM Tris-HCl, pH 7.4), thinly cut in the buffer, and then homogenised in a buffer (2) [buffer (1) containing 120 mM sodium chloride and 5 mM potassium chloride] using a Polytron homogenizer. The tissue mass was removed from the homogenate by filtration with a nylon mesh (50 μm) and the supernatant was centrifuged (30,000×g, 30 minutes, 4° C.). The resultant pellet was resuspended in an ice-cooled buffer (3) [buffer (1) containing 10 mM EDTA and 300 mM potassium chloride], allowed to stand at 4° C. for 60 minutes and then washed centrifugally twice (30,000×g, 15 minutes, 4° C.).
(§1) The crude membrane fraction was preserved at −80° C. before use.
(§2) (b) Receptor Binding Test
(§3) To a mixed solution (250 μl) of the test drug and [^3H]-substance P (final concentration: 1 nM) (50 mM Tris-HCl, pH 7.4; 6 mM manganese chloride, 800 μg/ml BSA, 8 μg/ml chymostatin, 8 μg/ml leupeptin, 80 μg/ml bacitracin, 20 μg/ml phosphoramidon) was added a crude lung membrane fraction solution (250 μl), followed by incubation at room temperature for 30 minutes.
At the end of this time, a lung membrane ingredient was recovered on a GF/B glass fiber filter (manufactured by Whatman Co.) using an automatic filtering device (manufactured by Brandel Co.).
The glass filter was used after being pre-treated with a 0.1% polyethyleneimine solution for about 4 hours so as to inhibit non-specific binding as little as possible. The membrane ingredient-recovered filter was transferred to a mini-plastic vial containing a pico flow (4 ml) and the radioactivity was measured using a liquid scintillation counter (LSC3000, manufactured by Beckman Co.).

NK2 receptors = target: T2, NK2 receptors (Cavia porcellus, UniProt Q64077); test: NK2 Receptor Binding Test; set-up: species or system guinea pig
T2 construct: A crude membrane fraction was prepared from the ileum of male Hartley guinea pigs; from tissue; host or cells: guinea pig ileum (crude membrane fraction)
T2 sequence (Q64077 1-402): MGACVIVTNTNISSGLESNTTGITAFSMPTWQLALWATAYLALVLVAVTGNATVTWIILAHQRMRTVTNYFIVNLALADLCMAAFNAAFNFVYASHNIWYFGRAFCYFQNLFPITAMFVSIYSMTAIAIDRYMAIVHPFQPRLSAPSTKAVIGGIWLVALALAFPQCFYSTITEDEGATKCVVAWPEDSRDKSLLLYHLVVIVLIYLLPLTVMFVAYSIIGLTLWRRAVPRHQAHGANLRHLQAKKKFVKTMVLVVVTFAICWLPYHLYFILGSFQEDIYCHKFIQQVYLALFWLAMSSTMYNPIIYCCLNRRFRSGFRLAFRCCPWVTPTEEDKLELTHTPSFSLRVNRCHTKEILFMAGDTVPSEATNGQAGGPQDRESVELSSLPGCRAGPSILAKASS
Protocol: (a) Preparation of Crude Ileum Membrane Fraction
A crude membrane fraction was prepared from the ileum of male Hartley guinea pigs. The guinea pigs were bled from the cava abdominalis under chloroform anaesthesia and the ileum was extracted immediately.
After the contents, secreta and epithelium of the lumen had been scraped off using a glass slide, the extracted ileum was thinly cut in a buffer (1) (50 mM Tris-HCl, pH 7.4) and then homogenised in a buffer (2) [buffer (1) containing 120 mM sodium chloride and 5 mM potassium chloride] using a Polytron homogenizer.
The tissue mass was removed from the homogenate by filtration with a nylon mesh (50 μm) and the supernatant was centrifuged (30,000×g, 30 minutes, 4° C.). The resultant pellet was resuspended in an ice-cooled buffer (3) [buffer (1) containing 10 mM EDTA and 30 mM potassium chloride], allowed to stand at 4° C. for 60 minutes and then washed centrifugally twice (30,000×g, 15 minutes, 4° C.).
as §1, §2
as §3, with “and [^3H]-SR-48968 (manufactured by Amasham Co., final” for “and [^3H]-substance P (final”, “7.4; 4.6” for “7.4; 6”, “[…]” for “20 μg/ml”, “crude ileum” for “crude lung”
At the end of this time, a membrane ingredient was recovered on a GF/B glass fiber filter (manufactured by Whatman Co.) using an automatic filtering device (manufactured by Brandel Co.). The glass filter was used after pre-treatment with a 0.1% polyethyleneimine solution for about 4 hours so as to inhibit non-specific binding as little as possible.
The membrane ingredient-recovered filter was transferred to a mini-plastic vial containing a pico flow (4 ml) and the radioactivity was measured using a liquid scintillation counter (LSC3000, manufactured by Beckman Co.).

[1] = test system: increased vascular permeability induced by substance P (SP), an NK1 receptor agonist; test: Inhibitory Effect on SP-Induced Increased Vascular Permeability; format: in vivo, guinea pig; conditions: i.v., male Hartley guinea pigs, pigment (Evans blue) leakage into primary bronchus 15 min after SP i.v.
Protocol: The inhibitory effect on increased vascular permeability induced by substance P (SP), an NK1 receptor agonist, was assessed based on the amount of pigment leakage as an index using guinea pigs (body weight: approx. 400 g, male Hartley guinea pigs). Immediately after administering pigment (Evans blue: 20 mg/kg, i.v.) and the test drug in that order into the femoral vein of the guinea pigs under pentobarbital anaesthesia (25 mg/kg, i.p.), increased vascular permeability was induced by administration of SP ([…], i.v.). Fifteen minutes later, the guinea pigs were sacrificed by chloroform anaesthesia and the amount of pigment that leaked into the primary bronchus was measured according to the method of Harada (J. Pharm. Pharmacol., 23, 218, 1971). Inhibitory effect was determined based on the amount of pigment leakage found in guinea pigs not treated with the test drug, and expressed as the percent of inhibition (%) and the dose level that caused inhibition of 50% (ID50).

[2] = test system: bronchoconstriction induced with [Nle^10]-NKA[4-10], an NK2 receptor agonist; test: Inhibitory Effect on NKA-Induced Bronchoconstriction; format: in vivo, guinea pig; conditions: i.v., male Hartley guinea pigs, airway pressure, test drug 5 min before [Nle^10]-NKA[4-10] i.v.
Protocol: The inhibitory effect on bronchoconstriction induced with [Nle^10]-NKA[4-10], an NK2 receptor agonist having higher specificity than neurokinin A (NKA), was assessed based on airway pressure as an index according to the modified method of Konzett-Rössler [Naunyn-Schmiedebergs Arch.Exp.Pathol.Pharmakol., 195, 71, (1940)] using guinea pigs (body weight: approximately 500 g, male Hartley guinea pigs).
After canulating the trachea of the guinea pigs under pentobarbital anaesthesia (30 mg/kg, s.c.) and treatment with gallamine (20 mg/kg, i.v.), the animals were ventilated artificially with a constant volume respiration pump (UgoBasile, 7025) at a frequency of 60 per minute and a tidal volume of 8 ml/kg. Airway pressure during artificial respiration was amplified by means of a pressure transducer (Nihon Koden, TP-200T) installed in a branch of the trachea cannula, detected (Nihon Koden, AP-610G), and recorded with a recorder (Nihon Koden, WT-685G). Following pre-treatment with atropine (1 mg/kg, i.v.) and propranolol (1 mg/kg, i.v.), the test drug was administered intravenously. Five minutes later, bronchoconstriction was induced with [Nle^10]-NKA[4-10] at […], i.v., and then airway pressure was measured for 10 minutes. The inhibitory effect was determined based on the intensity of bronchoconstriction of guinea pigs not treated with the test drug, and expressed as the percent of inhibition (%) and the dose level that caused inhibition of 50% (ID50).

[3] = [3H]-substance P 1 nM, crude lung membrane fraction of male Hartley guinea pigs, read-out: IC50 (converted)
[4] = [3H]-SR-48968 1 nM, crude ileum membrane fraction of male Hartley guinea pigs, read-out: IC50 (converted)

T1 sequence (P30547 whole entry): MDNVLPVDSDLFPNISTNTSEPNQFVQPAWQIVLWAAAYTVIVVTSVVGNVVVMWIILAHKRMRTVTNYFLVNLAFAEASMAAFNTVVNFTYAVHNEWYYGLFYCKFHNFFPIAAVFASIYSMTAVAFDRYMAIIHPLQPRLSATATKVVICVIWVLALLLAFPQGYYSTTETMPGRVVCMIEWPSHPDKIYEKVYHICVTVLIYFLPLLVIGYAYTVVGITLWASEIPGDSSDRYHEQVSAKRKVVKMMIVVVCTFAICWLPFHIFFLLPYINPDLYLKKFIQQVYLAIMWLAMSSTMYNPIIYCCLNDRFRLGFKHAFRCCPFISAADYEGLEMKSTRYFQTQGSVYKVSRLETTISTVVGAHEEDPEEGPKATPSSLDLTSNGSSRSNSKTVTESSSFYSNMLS

Row | Structure (SMILES) | IC50 (NK1 receptors; [3]) [nM] | IC50 (NK2 receptors; [4]) [nM] | ID50 [1] [mg/kg] | ID50 [2] [mg/kg] | activity in NK2 binding test (in words) (NK2 receptors; comment on Table 5) | IC50 (NK1 receptors) [nM] | IC50 (NK2 receptors) [nM]
1 | Cc1cc(C)cc(C(=O)N(C)C[C@@H](CCN2CCC3(CC2)CN(S(C)(=O)=O)c2ccccc23)c2ccc(Cl)c(Cl)c2)c1 [Compound A] | 60.4 | 28.6 | 5.8 | >10 | – | – | –
2 | COc1cc(C(=O)N2CCOC(CCN3CCC4(CC3)c3ccccc3C[S+]4[O-])(c3ccc(Cl)c(Cl)c3)C2)cc(OC)c1OC [Example 76, 1-{2-[(2R)-(3,4-Dichlorophenyl)-4-(3,4,5-trimethoxybenzoyl)morpholin-2-yl]ethyl}spiro[benzo[c]thiophene-1(3H),4′-piperidine]-(2S)-oxide] | – | – | 0.047 | 0.047 | – | – | –
3 | COc1cc(C(=O)N2CO[C@](CCN3CCC4(CC3)c3ccccc3C[S@+]4[O-])(c3ccc(Cl)c(Cl)c3)C2)cc(OC)c1OC [Example 75, 1-{2-[(5R)-(3,4-Dichlorophenyl)-3-(3,4,5-trimethoxybenzoyl)oxazolidine-5-yl]ethyl}spiro[benzo[c]thiophene-1(3H),4′-piperidine]-(2S)-oxide] | 8.94 | 1.29 | 0.025 | 0.074 | – | – | –
4 | COc1cc(C(=O)N2CC[C@](CCN3CCC(C(N)=O)(c4ccccc4)CC3)(c3ccc(Cl)c(Cl)c3)C2)cc(OC)c1OC [Compound C] | 10.1 | 48.4 | 0.019 | 1.7 | very weak activity | – | –
5 | CN(C[C@@H](CCN1CCC2(CCc3ccccc32)CC1)c1ccc(Cl)c(Cl)c1)C(=O)c1ccccc1 [Compound B] | – | – | >10 | 0.37 | – | > 1920 | 4.22
